Laboratory results: ChEMBL document CHEMBL3832045, “DailyMed|setid=14ed9edd-bfd3-4fa4-9293-66666f779ba3 | TRIAMCINOLONE ACETONIDE - triamcinolone acetonide spray, metered|Physicians Total Care, Inc”

Key:
Assay type in all cases: ADME, organism-based
[1] = (§1) Pharmacokinetic parameters for triamcinolone acetonide evaluated after intranasal administration of triamcinolone acetonide nasal spray.; design: dose 220 mcg, route intranasal, dose 110 to 440; conditions: human, in vivo, inhaled or intranasal, dosed compound id 47, dosed compound name TRIAMCINOLONE ACETONIDE, regimen Single dose, tissue Plasma
Homo sapiens = test: as §1; design: dose 220 mcg, route intranasal, dose 110 to 440; conditions: in vivo, inhaled_or_intranasal, dose 220 mcg, dosed compound id 47, dosed compound name TRIAMCINOLONE ACETONIDE, regimen Single dose, route intranasal, tissue Plasma
[2] = Evaluation of pharmacokinetic parameters for triamcinolone acetonide following intravenous dosing of triamcinolone acetonide phosphate ester in adults.; conditions: human, in vivo, dosed compound id 470, dosed compound name TRIAMCINOLONE ACETONIDE PHOSPHATE ESTER, tissue Plasma

CC1(C)O[C@@H]2C[C@H]3[C@@H]4CCC5=CC(=O)C=C[C@]5(C)[C@@]4(F)[C@@H](O)C[C@]3(C)[C@]2(C(=O)CO)O1 [TRIAMCINOLONE ACETONIDE]
Tmax ([1]; dose 220 mcg, route intranasal): 1.5 h
half-life ([1]; dose 220 mcg, route intranasal): 3.1 h
Cmax [1]: 0.5 ng/mL
AUC ([1]; read-out: AUC(0 to inf)): 1.4 to 4.7 ng·h/mL
t1/2 (Homo sapiens): 3.1 h
Vd [2]: 99.5 L
clearance [2]: 753 mL/min
half-life [2]: 1.47 h
